One assay relates to pigweed, palmer. The assay is described as follows: Test E preemergence. The following applies: 21 days, scale 0 to 100. It counts as in vivo, Amaranthus palmeri. The text has this: Seeds of plant species selected from bermudagrass (Cynodon dactylon), Surinam grass (Brachiaria decumbens), crabgrass, large (large crabgrass, Digitaria sanguinalis), crabgrass, naked (naked crabgrass, Digitaria nuda), foxtail, green (green foxtail, Setaria viridis), johnsongrass (Sorghum halepense), kochia (Kochia scoparia), morningglory (pitted morningglory, Ipomoea lacunosa), nutsedge, purple (purple nutsedge, Cyperus rotundus), ragweed (common ragweed, Ambrosia elation), mustard, black (black mustard, Brassica nigra), guineagrass (Panicum maximum), dallisgrass (Paspalum dilatatum), barnyardgrass (Echinochloa crus-galli), sandbur (southern sandbur, Cenchrus echinatus), sowthistle (common sowthistle, Sonchus oleraceous), ryegrass, Italian (Italian ryegrass, Lolium multiflorum), signalgrass (broadleaf signalgrass, Brachiaria platyphylla), dayflower, VA (Virginia (VA) dayflower, Commelina virginica), bluegrass (annual bluegrass, Poa annua), quackgrass (Elytrigia repens), mallow (common mallow, Malva sylvestris), buckwheat, wild (wild buckwheat, Polygonum convolvulus), leafy spurge (Euphorbia esula), common chickweed (Stellaria media), wild poinsettia (Euphorbia heterophylla), pigweed, palmer (palmer pigweed, Amaranthus palmeri), and pigweed (redroot pigweed, Amaranthus retroflexus) were planted into a blend of loam soil and sand and treated preemergence with test chemicals formulated in a non-phytotoxic solvent mixture which included a surfactant.
Treated plants and controls were maintained in a greenhouse for 21 days, after which time all species were compared to controls and visually evaluated. Plant response ratings, summarized in Table E, are based on a scale of 0 to 100 where 0 is no effect and 100 is complete control. A dash (-) response means no test result.

The subject of assay [1] is barnyardgrass. Kind of assay: Test F postemergence. Type of assay: in vivo, Echinochloa crus-galli. The conditions noted are these: scale 0 to 100. The source says: (§1) Seeds of plant species selected from corn (Zea mays), soybean (Glycine max), velvetleaf (Abutilon theophrasti), lambsquarters (Chenopodium album), wild poinsettia (Euphorbia heterophylla), pigweed, palmer (palmer pigweed, Amaranthus palmeri), common waterhemp (Amaranthus rudis), surinam grass (Brachiaria decumbens), large crabgrass (Digitaria sanguinalis), crabgrass, Brazil (Brazilian crabgrass, Digitaria horizontalis), fall panicum (Panicum dichotomiflorum), giant foxtail (Setaria faberii), green foxtail (Setaria viridis), goosegrass (Eleusine indica), johnsongrass (Sorghum halepense), common ragweed (Ambrosia elation), barnyardgrass (Echinochloa crus-galli), southern sandbur (Cenchrus echinatus), arrowleaf sida (Sida rhombifolia), Italian ryegrass (Lolium multiflorum), dayflower, VA (Virginia (VA) dayflower, Commelina virginica), field bindweed (Convolvulus arvensis), cocklebur (common cocklebur, Xanthium strumarium), morningglory (Ipomoea coccinea), nightshade (eastern black nightshade, Solanum ptycanthum), kochia (Kochia scoparia), yellow nutsedge (Cyperus esculentus), and hairy beggarticks (Bidens pilosa), were planted into a silt loam soil and treated preemergence with test chemicals formulated in a non-phytotoxic solvent mixture which included a surfactant.
(§2) At the same time, plants from these crop and weed species and also horseweed (Canada horseweed, Conyza canadensis), smartweed (ladysthumb smartweed, Polygonum persicaria), waterhemp_RES1, (ALS & Triazine resistant common waterhemp, Amaranthus rudis), and waterhemp_RES2, (ALS & HPPD resistant common waterhemp, Amaranthus rudis) were treated with postemergence applications of test chemicals formulated in the same manner. Plants ranged in height from 2 to 18 cm for postemergence treatments (1- to 4-leaf stage). Treated plants and controls were maintained in a greenhouse for 14 to 21 days, after which time all species were compared to controls and visually evaluated. Plant response ratings, summarized in Table F, are based on a scale of 0 to 100 where 0 is no effect and 100 is complete control. A dash (-) response means no test result.

Assay [2] relates to barnyardgrass. The assay is described as follows: Test C flooded paddy test. Type of assay: in vivo, Echinochloa crus-galli. The conditions noted are these: Flood. Put shortly:
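Greenhouse pots flooded to 3 cm above soil at time of treatment received compound via the water, which stayed at that level.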

The test system of a further assay is cocklebur. The assay is described as follows: Test F preemergence. Type of assay: in vivo, Xanthium strumarium. The following applies: scale 0 to 100.
Text: as §1
as §2, with “A dash (-) response means no test result.” left out

[3] abbreviates: 31 g ai/ha, scale 0 to 100 (0 no effect, 100 complete control).
The mark [4] stands for this setting: 62 g ai/ha, scale 0 to 100 (0 no effect, 100 complete control).
[5] abbreviates: 125 g ai/ha, scale 0 to 100 (0 no effect, 100 complete control).

Take `CCc1cc(C(=O)NCC(F)(F)F)nn1Cc1ccnc(C(F)(F)F)c1` [Compound 78, 5-ethyl-N-(2,2,2-trifluoroethyl)-1-[[(2-trifluoromethyl)-4-pyridinyl]methyl]-1H-pyrazole-3-carboxamide]: the “Plant response rating, Pigweed, Palmer” value in the assay with pigweed, palmer (16 g ai/ha) is 40; with pigweed, palmer (31 g ai/ha), 80; in the assay on pigweed, palmer (62 g ai/ha), 100; in the assay with pigweed, palmer (125 g ai/ha), 100; in the assay on pigweed, palmer (250 g ai/ha), 100. The “Plant response rating, Barnyardgrass” value amounted to 5 in the assay on barnyardgrass [1] (Postemergence, 31 g ai/ha); 40 in the assay on barnyardgrass [1] (Postemergence, 125 g ai/ha); 70 in the assay with barnyardgrass [1] (Postemergence, 250 g ai/ha); 30 in the assay on barnyardgrass [1] (postemergence, 62 g ai/ha); 90 in the assay with barnyardgrass [1] (postemergence, 500 g ai/ha).

For the compound `CCOc1cc(C(=O)NCC(F)(F)F)nn1Cc1ccnc(C(F)(F)F)c1` [Compound 104], the “Plant response rating, Barnyardgrass” value with barnyardgrass [1] (Postemergence, 31 g ai/ha) was found to be 0; in the assay with barnyardgrass [1] (Postemergence, 125 g ai/ha) it was 30; in the assay with barnyardgrass [1] (Postemergence, 250 g ai/ha), 80; with barnyardgrass [1] (postemergence, 62 g ai/ha), 10; with barnyardgrass [1] (postemergence, 500 g ai/ha), 95.

For `CCCc1cc(C(=O)NCC(F)(F)F)nn1Cc1ccnc(C(F)(F)F)c1` [Compound 105], the “Plant response rating, Barnyardgrass” value in the assay on barnyardgrass [1] (Postemergence, 31 g ai/ha) was 10; with barnyardgrass [1] (Postemergence, 125 g ai/ha), 15; in the assay with barnyardgrass [1] (Postemergence, 250 g ai/ha), 60; in the assay on barnyardgrass [1] (postemergence, 62 g ai/ha) it was 5; with barnyardgrass [1] (postemergence, 500 g ai/ha) it was 90.

As for `CCCNC(=O)c1cc(CCCl)n(Cc2ccnc(C(F)(F)F)c2)n1` [Compound 145], the “Plant response rating, Barnyardgrass” value came to 0 in the assay with barnyardgrass [2] (setting [3]); 0 in the assay on barnyardgrass [2] (setting [4]); 30 in the assay on barnyardgrass [2] (125 g ai/ha, scale 0 to 100); 40 with barnyardgrass [2] (250 g ai/ha, scale 0 to 100).

For the compound `CCOc1cc(C(=O)NC(C)C)nn1Cc1ccnc(C(F)(F)F)c1` [Compound 188], the “Plant response rating, Barnyardgrass” value in the assay on barnyardgrass [1] (Postemergence, 31 g ai/ha) was 0; in the assay on barnyardgrass [1] (Postemergence, 125 g ai/ha), 50; with barnyardgrass [1] (Postemergence, 250 g ai/ha), 60; in the assay with barnyardgrass [1] (postemergence, 62 g ai/ha), 20; in the assay with barnyardgrass [1] (postemergence, 500 g ai/ha), 95.

Regarding `CCONC(=O)c1cc(OCC)n(Cc2ccnc(C(F)(F)F)c2)n1` [Compound 195], the “Plant response rating, Barnyardgrass” value in the assay with barnyardgrass [2] (setting [3]) is recorded as 0; in the assay with barnyardgrass [2] (setting [4]) it was 30; in the assay on barnyardgrass [2] (setting [5]), 40; in the assay on barnyardgrass [2] (250 g ai/ha, scale 0 to 100), 45.

With `CCc1cc(C(=O)NC2CC2)nn1Cc1ccnc(OCC(F)(F)F)c1` [Compound 200], the “Plant response rating, Barnyardgrass” value in the assay on barnyardgrass [2] (setting [3]) came out at 0; with barnyardgrass [2] (setting [4]) it was 0; in the assay with barnyardgrass [2] (setting [5]) it was 20; in the assay on barnyardgrass [2] (250 g ai/ha, scale 0 to 100), 40. For the same compound, the “Plant response rating, Cocklebur” value in the assay on cocklebur (16 g ai/ha) was 20; in the assay with cocklebur (62 g ai/ha), 30; in the assay on cocklebur (250 g ai/ha), 30.

For `CCc1cc(C(=O)NC2CC2)nn1Cc1cc(C(F)(F)C(F)(F)F)nn1C` [Compound 226], the “Plant response rating, Barnyardgrass” value in the assay with barnyardgrass [2] (setting [3]), in the assay with barnyardgrass [2] (setting [4]) and in the assay on barnyardgrass [2] (setting [5]) was 0 in each case.

The record behind these values is US20150105252A1, “SUBSTITUTED PYRAZOLES AS HERBICIDES” (E I DU PONT DE NEMOURS AND COMPANY, priority 2013, published 2015).
